Assay results reported in US5591714A, “Derivatives of A82846” (priority 1994, dated 1997).

Legend:
Enterococcus faecium X66 = test: MIC, standard agar-dilution assay; type: cell-based
Description: (§1) The formula I compounds have in vitro and in vivo activity against Gram-positive pathogenic bacteria. The MIC's were determined using a standard agar-dilution assays.
^b Formerly Streptococcus faecium X66

[1] = tested on: Staphylococcus aureus S13E; type: cell-based
Description: as §1

[2] = tested on: Streptococcus pneumoniae Park 1; type: cell-based
Description: as §1

Streptococcus pneumoniae = test: In vivo activity, experimentally infected mice (ED50); conditions: Streptococcus pneumoniae infection; doses administered subcutaneously to mice 1 and 4 hours postinfection
Streptococcus pyogenes = test: as above; conditions: Streptococcus pyogenes infection; doses administered subcutaneously to mice 1 and 4 hours postinfection
[3] = tested on: Klebsiella pneumoniae X68; test: MIC, standard agar-dilution assay; type: cell-based
Description: as §1

[4] = tested on: Streptococcus pyogenes C203; test: MIC, standard agar-dilution assay; type: cell-based
Description: as §1

[5] = tested on: Staphylococcus aureus V41; test: MIC, standard agar-dilution assay; type: cell-based
Description: as §1

[6] = tested on: Staphylococcus epidermidis 222; test: MIC, standard agar-dilution assay; type: cell-based
Description: as §1

Escherichia coli TEM = test: MIC, standard agar-dilution assay; type: cell-based
Description: as §1

[7] = tested on: Haemophilus influenzae 76; test: MIC, standard agar-dilution assay; type: cell-based
Description: as §1

[8] = tested on: Klebsiella pneumoniae X26; test: MIC, standard agar-dilution assay; type: cell-based
Description: as §1

Escherichia coli EC14 = test: MIC, standard agar-dilution assay; type: cell-based
Description: as §1

[9] = tested on: Staphylococcus aureus NRRL X1.1; test: MIC, standard agar-dilution assay; type: cell-based
Description: as §1

[10] = tested on: Haemophilus influenzae C.L.; test: MIC, standard agar-dilution assay; type: cell-based
Description: as §1

[11] = tested on: Staphylococcus aureus X400; test: MIC, standard agar-dilution assay; type: cell-based
Description: as §1

[12] = tested on: Staphylococcus epidermidis EPI270; test: MIC, standard agar-dilution assay; type: cell-based
Description: as §1

Escherichia coli N10 = test: MIC, standard agar-dilution assay; type: cell-based
Description: as §1

[13] = tested on: Klebsiella pneumoniae KAE; test: MIC, standard agar-dilution assay; type: cell-based
Description: as §1

[14] = tested on: Enterococcus faecalis 2041; test: MIC, standard agar-dilution assay; type: cell-based
Description: as §1
^c Formerly Streptococcus faecalis 2041

CN[C@H](CC(C)C)C(=O)N[C@H]1C(=O)N[C@@H](CC(N)=O)C(=O)N[C@H]2C(=O)N[C@H]3C(=O)N[C@H](C(=O)N[C@H](C(=O)O)c4cc(O)cc(O)c4-c4cc3ccc4O)[C@H](O[C@H]3C[C@](C)(NCc4ccc(Cl)cc4)[C@@H](O)[C@H](C)O3)c3ccc(cc3)Oc3cc2cc(c3O[C@@H]2O[C@H](CO)[C@@H](O)[C@H](O)[C@H]2O[C@H]2C[C@](C)(N)[C@@H](O)[C@H](C)O2)Oc2ccc(cc2Cl)[C@H]1O [Compound 21]
.5 mg/L: MIC (Enterococcus faecium X66) | MIC [2] | MIC [4] | MIC [5] | MIC [9] | MIC [11] | MIC [12] | MIC [14]
.25 mg/L: MIC [1] | MIC [6]
0.47 mg/kg/2: ED50 (Streptococcus pneumoniae)
> 128 mg/L: MIC [3] | MIC (Escherichia coli TEM) | MIC [7] | MIC [8] | MIC (Escherichia coli EC14) | MIC [10] | MIC (Escherichia coli N10) | MIC [13]
0.29 mg/kg/2: ED50 (Streptococcus pyogenes)

CN[C@H](CC(C)C)C(=O)N[C@H]1C(=O)N[C@@H](CC(N)=O)C(=O)N[C@H]2C(=O)N[C@H]3C(=O)N[C@H](C(=O)N[C@H](C(=O)O)c4cc(O)cc(O)c4-c4cc3ccc4O)[C@H](O[C@H]3C[C@](C)(NCc4ccc(Cl)cc4)[C@@H](O)[C@H](C)O3)c3ccc(cc3)Oc3cc2cc(c3O[C@@H]2O[C@H](CO)[C@@H](O)[C@H](O)[C@H]2O[C@H]2C[C@](C)(NCc3ccc(Cl)cc3)[C@@H](O)[C@H](C)O2)Oc2ccc(cc2Cl)[C@H]1O [Compound 23]
2 mg/L: MIC [1] | MIC [4] | MIC [5] | MIC [9] | MIC [11] | MIC [12]
4 mg/L: MIC (Enterococcus faecium X66) | MIC [14]
1 mg/L: MIC [2] | MIC [6]
> 128 mg/L: MIC [3] | MIC (Escherichia coli TEM) | MIC [7] | MIC [8] | MIC (Escherichia coli EC14) | MIC [10] | MIC (Escherichia coli N10) | MIC [13]
0.8 mg/kg/2: ED50 (Streptococcus pyogenes)
1.02 mg/kg/2: ED50 (Streptococcus pneumoniae)

CCCCCCCCc1ccc(CNC2(C)CC(OC3C(Oc4c5cc6cc4Oc4ccc(cc4Cl)C(OC4CC(C)(N)C(O)C(C)O4)C4NC(=O)C(NC(=O)C6NC(=O)C(CC(N)=O)NC(=O)C(NC(=O)C(CC(C)C)NC)C(O)c6ccc(c(Cl)c6)O5)c5ccc(O)c(c5)-c5c(O)cc(O)cc5C(C(=O)O)NC4=O)OC(CO)C(O)C3O)OC(C)C2O)cc1 (stereo not shown) [Compound 54]
4 mg/L: MIC [2]
> 128 mg/L: MIC [3] | MIC (Escherichia coli TEM) | MIC [7] | MIC [8] | MIC (Escherichia coli EC14) | MIC [10] | MIC (Escherichia coli N10) | MIC [13]
8 mg/L: MIC [4]
0.91 mg/kg/2: ED50 (Streptococcus pyogenes)
64 mg/L: MIC (Enterococcus faecium X66) | MIC [1] | MIC [5] | MIC [6] | MIC [11] | MIC [12] | MIC [14]
32 mg/L: MIC [9]

CCCCCCCCOc1ccc(CNC2(C)CC(OC3C(Oc4c5cc6cc4Oc4ccc(cc4Cl)C(OC4CC(C)(N)C(O)C(C)O4)C4NC(=O)C(NC(=O)C6NC(=O)C(CC(N)=O)NC(=O)C(NC(=O)C(CC(C)C)NC)C(O)c6ccc(c(Cl)c6)O5)c5ccc(O)c(c5)-c5c(O)cc(O)cc5C(C(=O)O)NC4=O)OC(CO)C(O)C3O)OC(C)C2O)cc1 (stereo not shown) [Compound 55]
4 mg/L: MIC [4] | MIC [5]
2 mg/L: MIC [2]
8 mg/L: MIC (Enterococcus faecium X66) | MIC [1] | MIC [6] | MIC [9] | MIC [14]
0.73 mg/kg/2: ED50 (Streptococcus pyogenes)
16 mg/L: MIC [11] | MIC [12]
> 128 mg/L: MIC [3] | MIC (Escherichia coli TEM) | MIC [7] | MIC [8] | MIC (Escherichia coli EC14) | MIC [10] | MIC (Escherichia coli N10) | MIC [13]

CCCCCCC(=O)NC1(C)CC(OC2c3ccc(c(Cl)c3)Oc3cc4cc(c3OC3OC(CO)C(O)C(O)C3OC3CC(C)(N)C(O)C(C)O3)Oc3ccc(cc3Cl)C(O)C(NC(=O)C(CC(C)C)NC)C(=O)NC(CC(N)=O)C(=O)NC4C(=O)NC3C(=O)NC2C(=O)NC(C(=O)O)c2cc(O)cc(O)c2-c2cc3ccc2O)OC(C)C1O (stereo not shown) [Compound 69]
4 mg/L: MIC [11]
.5 mg/L: MIC [2]
8 mg/L: MIC [12]
2 mg/L: MIC (Enterococcus faecium X66) | MIC [1] | MIC [5] | MIC [6]
< 0.62 mg/kg/2: ED50 (Streptococcus pyogenes)
> 128 mg/L: MIC [3] | MIC (Escherichia coli TEM) | MIC [7] | MIC [8] | MIC (Escherichia coli EC14) | MIC [10] | MIC (Escherichia coli N10) | MIC [13]
1 mg/L: MIC [4] | MIC [9] | MIC [14]

CCCCCNC1(C)CC(OC2c3ccc(cc3)Oc3cc4cc(c3O)Oc3ccc(cc3Cl)C(O)C(NC(=O)C(CC(C)C)NC)C(=O)NC(CC(N)=O)C(=O)NC4C(=O)NC3C(=O)NC2C(=O)NC(C(=O)O)c2cc(O)cc(O)c2-c2cc3ccc2O)OC(C)C1O (stereo not shown) [Compound 74]
2 mg/L: MIC [12]
4 mg/L: MIC [1] | MIC [2] | MIC [4] | MIC [5] | MIC [6] | MIC [9] | MIC [11]
8 mg/L: MIC (Enterococcus faecium X66) | MIC [14]
> 128 mg/L: MIC [3] | MIC (Escherichia coli TEM) | MIC [7] | MIC [8] | MIC (Escherichia coli EC14) | MIC [10] | MIC (Escherichia coli N10) | MIC [13]

CCCCCNC1(C)CC(OC2c3ccc(c(Cl)c3)Oc3cc4cc(c3OC3OC(CO)C(O)C(O)C3O)Oc3ccc(cc3Cl)C(O)C(NC(=O)C(CC(C)C)NC)C(=O)NC(CC(N)=O)C(=O)NC4C(=O)NC3C(=O)NC2C(=O)NC(C(=O)O)c2cc(O)cc(O)c2-c2cc3ccc2O)OC(C)C1O (stereo not shown) [Compound 77]
1 mg/L: MIC [6] | MIC [11]
> 128 mg/L: MIC [3] | MIC (Escherichia coli TEM) | MIC [8] | MIC (Escherichia coli EC14) | MIC (Escherichia coli N10) | MIC [13]
.5 mg/L: MIC [1] | MIC [2] | MIC [5] | MIC [9]
128 mg/L: MIC [7] | MIC [10]
2 mg/L: MIC (Enterococcus faecium X66) | MIC [14]
8 mg/L: MIC [12]
.25 mg/L: MIC [4]
